Measured values taken from US20220288115A1, “ORAL DISODIUM PYR[…] USE IN REDUCING CALCIFICATION” (priority 2019, published 2022).

Legend:
[1] = three months after the operation; 44 mg/kg per oral once daily
Experimental: As PXE patients have an increased risk of spontaneous gastrointestinal bleeding, aspirin medication was not used preoperatively. […] With the present therapy the patients absorbs extra 0.8 mg sodium and is informed to decrease daily salt intake.
Aspirin and PPi therapy were continued unaltered.

[2] = human subjects
From the text: FIG. 1: Plasma bioavailability of PPi after oral disodium PPi and after oral tetrasodium PPI. Results of different subjects (#) are shown, as well as AUC and AUC/mg PPi.
In this experiment PPI bioavailability was compared between tetrasodium PPi and disodium PPi in different human subjects (as indicated by # in FIG. 1).

[3] = single oral dose, PXE patient, fasting baseline 0.7 μmol/l (FIG. 2)
From the text: Legend indicates the dose (per kg of body weight) and time of PPi consumption.

O=P([O-])([O-])OP(=O)(O)O.[Na+].[Na+] [disodium pyrophosphate]
re-stenosis on computed tomography angiography (CTA) (one year postoperatively): without signs of re-stenosis | Walking Impairment Questionnaire (WIQ) score (one year postoperatively, baseline 0.19, 44 mg/kg per oral once daily): 0.89 | re-stenosis in the operated area on MRA (three months after the operation): no re-stenosis | safety laboratory tests [1]: normal | PPi bioavailability in plasma after oral uptake ([2]; compared with oral tetrasodium PPi (FIG. 1)): much better bioavailable | area under the curve (AUC) and calculated AUC/mg PPi of plasma PPi ([2]; oral, compared with tetrasodium PPi): higher | time plasma pyrophosphate stayed in the normal fasting range of healthy controls (0.8-1.6 μmol/l) [3]: 180 min
